Test results reported in US8940739B2, “Compound of a reverse-turn mimetic and a production method and use therefor” (JW Pharmaceutical Corporation, priority 2010, dated 2015).
Converted amounts (≈) assume the structure as drawn.

Experiments:
[1] = system: MV-4-11 (human, Acute Myeloid Leukemia cell line) cells; experiment: Cell growth inhibition assay, GI50 of MV-4-11; type: cell-based; details: Homo sapiens, MV4-11, 72 h, MV-4-11 cells
Method in brief: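 GI50 derived from 490 nm absorbance using CellTiter 96 Aqueous One reagent, with compound-free medium providing the background. Human AML MV-4-11 cells, seeded at 5×10^4 per well in IMDM/10% FBS, incubated 72 h at 37 °C with duplicate serial dilutions of test compound.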

[2] = target: cDNA-expressed human hepatic CYP3A4 (Homo sapiens (Human), UniProt P08684); experiment: Measurement of CYP (IC50 of P450 CYP3A4), BFC substrate; type: in vitro ADME; details: 20 minutes
Method in brief: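 cDNA-expressed human CYP3A4 supersomes in 0.1M potassium phosphate pH 7.4 with 8.3 mM MgCl2, 1.67 mM EDTA and 0.25 mM NADPH; compounds in acetonitrile (<1% final). Reaction started with 30 µM BFC, 20 min at 37. 7-Hydroxy-4-trifluoromethyl-coumarin read by fluorescence (ex 409/em 530 nm).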

[3] = Solubility in physiological saline; type: physicochemical; details: saline or isotonic, thermodynamic from solid, 10 mg in 0.25 ml
Description: 2) Evaluation of Solubility of Compound E-5
Compound E-5, Compound E-5•HCl, and Compound E-5•H2SO4 were respectively weighed to 10 mg, and 0.25 ml of physiological saline was added, and they were vortex mixed. The supernatant was filtered with a 0.22 μm filter and quantitatively analyzed by HPLC.

[4] = Blood drug concentration upon intravenous administration; type: in vivo; details: SD rat, 12.5 mg/kg
Description: Compound E-5 was intravenously injected in 12.5 mg/kg to SD rat. 5, 15, 30, […], 120, 240, 1140 minutes after injection, the blood was taken and the drug concentration in the blood was quantitatively analyzed using an analyzer HPLC/MS/MS.

[5] = MLM, hepatic metabolic stability; type: in vitro ADME; details: mouse hepatic microsome, amount at 30 minutes compared with 0 minutes
Description: For the sake of retaining efficacy of novel drugs and preventing side-effects, hepatic metabolic stability is regarded as very important. Hepatic metabolic stability is typically determined using microsome or S9. In the present test, a microsome having CYP450 as a main component, which plays a great role in metabolism, was used to evaluate the metabolic stability.
This assay was performed in a 200 l volume in a 13 ml glass tube using mouse hepatic microsome whose activity was measured.
The compounds of Examples 1 to 5 were dissolved in DMSO (dimethyl sulfoxide) to prepare a 25 mM stock solution, which was then diluted with 50% acetonitrile and used in the test. A potassium phosphate buffer (pH 7.4, final concentration 0.1M), MgCl2 (final concentration 0.1M), a diluted inventive compound stock solution (final concentration 1 mM), and a mouse microsome (final concentration 5 mg/ml) were added to the glass tube. The reaction was initiated by the addition of a cofactor NADPH (final concentration 12.5 mM) after pre-incubation at 37 for 3 minutes. The reaction was carried out at 37 for 10 minutes and 30 minutes, and then terminated with 1000 μl of acetonitrile, and the remaining inventive compound was extracted. The centrifugation was conducted at 3000 rpm for 10 minutes, after which the supernatant was dried and dissolved again in 150 μl of 50% acetonitrile and quantitatively analyzed by HPLC. 0 minutes and 30 minutes after reaction, the amounts of the compounds of the present invention were compared thus evaluating the extent of metabolic stability.

cDNA-expressed human hepatic CYP3A4, sequence (P08684 whole entry): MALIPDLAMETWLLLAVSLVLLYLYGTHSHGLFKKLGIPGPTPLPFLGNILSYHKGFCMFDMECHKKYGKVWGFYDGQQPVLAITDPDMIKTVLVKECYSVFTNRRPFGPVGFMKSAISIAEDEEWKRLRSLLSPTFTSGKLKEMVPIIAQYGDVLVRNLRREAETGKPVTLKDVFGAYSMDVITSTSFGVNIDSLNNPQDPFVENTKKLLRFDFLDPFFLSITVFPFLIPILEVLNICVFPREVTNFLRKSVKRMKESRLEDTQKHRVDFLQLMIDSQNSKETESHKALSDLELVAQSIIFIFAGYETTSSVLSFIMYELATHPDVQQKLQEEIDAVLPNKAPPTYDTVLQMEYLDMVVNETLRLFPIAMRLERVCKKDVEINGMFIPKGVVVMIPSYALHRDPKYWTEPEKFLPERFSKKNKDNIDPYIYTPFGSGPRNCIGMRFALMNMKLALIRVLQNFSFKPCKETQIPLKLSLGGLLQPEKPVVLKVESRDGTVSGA

solubility [3] [µg/mL]	AUC [4] [ng·h/mL]	half-life ([4]; read-out: Half-life (t ½, hr) (converted)) [h]	SMILES	GI50 [1] [nM]	IC50 [2] [nM]	MLM (%) [5] [%]
68 (≈ 92.8 µM)	4530	1.59	C=CCN1CC(=O)N2[C@@H](Cc3ccc(O)cc3)C(=O)N(Cc3cccc4c(C(=O)N5CCN(CC)CC5)cn(C)c34)C[C@@H]2N1C(=O)NCc1ccccc1 [Compound E-5, (6S,9aS)-2-allyl-N-benzyl-8-((3-(4-ethylpiperazine-1-carbonyl)-1-methyl-1H-indol-7-yl)methyl)-6-(4-hydroxybenzyl)-4,7-dioxooctahydro-1H-pyrazino[2,1-c][1,2,4]-triazine-1-carboxamide]	11.6	8040	–
–	–	–	C=CCN1CC(=O)N2[C@@H](Cc3ccc(O)cc3)C(=O)N(Cc3cccc4c(-c5ccc(NC(=O)Nc6ccccc6)nc5)cn(C)c34)C[C@@H]2N1C(=O)NCc1ccccc1 [Compound C, (6S,9aS)-2-allyl-N-benzyl-6-(4-hydroxybenzyl)-8-((1-methyl-3-(6-(3-phenylureido)pyridine-3-yl)-1H-indol-7-yl)methyl)-4,7-dioxooctahydro-1H-pyrazino[2,1-c][1,2,4]-triazine-1-carboxamide]	9.5	> 25000	64
–	–	–	C=CCN1CC(=O)N2[C@@H](Cc3ccc(O)cc3)C(=O)N(Cc3cccc4c(-c5ccc(NC(=O)Nc6ccccc6)nc5)cn(C)c34)C[C@@H]2N1C(=O)NCc1ccccc1 [Compound D-85]	9.5	> 25000	64.3
–	–	–	C=CCN1CC(=O)N2[C@@H](Cc3ccc(O)cc3)C(=O)N(Cc3cccc4c(-c5ccc(NC(=O)NC6CCCCC6)cc5)cn(C)c34)C[C@@H]2N1C(=O)NCc1ccccc1 [Compound D-74]	11.2	> 25000	56.9
–	–	–	C=CCN1CC(=O)N2[C@@H](Cc3ccc(O)cc3)C(=O)N(Cc3cccc4c(-c5ccc(NC(=O)c6ccc(N)nc6)cc5)cn(C)c34)C[C@@H]2N1C(=O)NCc1ccccc1 [Compound D-69]	1.1	> 25000	65
–	–	–	C=CCN1CC(=O)N2[C@@H](Cc3ccc(O)cc3)C(=O)N(Cc3cccc4c(-c5ccc(NC(=O)Nc6ccc(OC)nc6)cc5)cn(C)c34)C[C@@H]2N1C(=O)NCc1ccccc1 [Compound D-77]	6.5	> 25000	65.4
